ChEMBL document CHEMBL1151487, “DHPMP: a novel group I specific metabotropic glutamate receptor agonist” (Bioorg Med Chem Lett, 1996)

Assays:
[1] = species on record: Cavia porcellus; test: Compound was evaluated for inhibition of forskolin-stimulated cAMP generation at Group II and Group III mGluRs; format: functional
[2] = Compound was evaluated for its activity at group I mGluRs for the generation of [3H]inositol phosphate using [3H]inositol pre-labelled guinea-pig cerebral cortex slices.; format: tissue-based, Cavia porcellus

Compound	EC50 [1] [nM]	Log EC50 [2]
NC(c1cc(O)cc(O)c1)[PH](=O)O (stereo not drawn)	2090	-4.56
N[C@H](C(=O)O)c1cc(O)cc(O)c1		-4.9
